Source: patent US20260183275A1, “SUBSTITUTED QUINOLONE COMPOUNDS USEFUL AS INHIBITORS OF TLR9” (Bristol-Myers Squibb Company, priority 2022, published 2026)
pIC50: −log10 of the molar value.

Legend:
Assay type in all cases: cell-based
human TLR9 = target: T1, human TLR9 (Homo sapiens, UniProt Q9NR96); assay: TLR9 inhibition reporter assay (HEK-Blue cells, SEAP reporter); conditions: HEK-Blue cells overexpressing human TLR9; stimulated with ODN2006 5 nM; SEAP read after 22 hour; dose range 0.05 nM-50 μM
T1 construct: host or cells: HEK-Blue cells
T1 sequence (Q9NR96 26-1032): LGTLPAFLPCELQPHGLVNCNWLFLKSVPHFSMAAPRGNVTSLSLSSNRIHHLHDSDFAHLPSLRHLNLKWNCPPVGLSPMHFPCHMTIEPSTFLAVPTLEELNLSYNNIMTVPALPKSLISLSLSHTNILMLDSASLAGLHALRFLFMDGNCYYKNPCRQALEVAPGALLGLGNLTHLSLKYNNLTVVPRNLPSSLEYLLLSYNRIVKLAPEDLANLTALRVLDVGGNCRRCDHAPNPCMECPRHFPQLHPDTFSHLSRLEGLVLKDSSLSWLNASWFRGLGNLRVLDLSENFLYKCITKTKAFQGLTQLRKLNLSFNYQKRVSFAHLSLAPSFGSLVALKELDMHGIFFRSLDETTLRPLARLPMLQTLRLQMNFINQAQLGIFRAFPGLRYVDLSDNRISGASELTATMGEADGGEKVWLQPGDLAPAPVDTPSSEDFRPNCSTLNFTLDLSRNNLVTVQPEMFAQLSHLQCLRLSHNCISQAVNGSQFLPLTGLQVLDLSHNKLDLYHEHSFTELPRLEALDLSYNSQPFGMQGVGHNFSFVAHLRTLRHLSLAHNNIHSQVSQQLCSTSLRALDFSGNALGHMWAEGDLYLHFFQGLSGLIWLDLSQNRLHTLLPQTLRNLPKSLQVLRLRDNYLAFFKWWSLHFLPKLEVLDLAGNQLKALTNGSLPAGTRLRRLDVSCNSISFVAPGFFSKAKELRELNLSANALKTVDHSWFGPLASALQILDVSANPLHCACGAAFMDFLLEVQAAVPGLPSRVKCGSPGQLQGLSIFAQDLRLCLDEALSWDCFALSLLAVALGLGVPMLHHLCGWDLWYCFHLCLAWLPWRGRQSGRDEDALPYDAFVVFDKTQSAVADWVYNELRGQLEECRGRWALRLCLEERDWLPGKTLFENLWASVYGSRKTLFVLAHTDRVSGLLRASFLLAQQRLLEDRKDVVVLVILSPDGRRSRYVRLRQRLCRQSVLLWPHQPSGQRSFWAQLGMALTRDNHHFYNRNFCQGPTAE
Method: (§1) HEK-Blue™-cells (Invivogen) overexpressing human TLR7, TLR8 or TLR9 receptors were used for screening inhibitors of these receptors using an inducible SEAP (secreted embryonic alkaline phosphatase) reporter gene under the control of the IFN-β minimal promoter fused to five NF-κB and AP-1-binding sites. Briefly, cells are seeded into Greiner 384 well plates (15000 cells per well for TLR7, 20,000 for TLR8 and 25,000 for TLR9) and then treated with test compounds in DMSO to yield a final dose response concentration range of 0.05 nM-50 μM. After a 30 minute compound pre-treatment at room temperature, the cells are then stimulated with a TLR7 ligand (gardiquimod at a final concentration of 7.5 μM), TLR8 ligand (R848 at a final concentration of 15.9 μM) or TLR9 ligand (ODN2006 at a final concentration of 5 nM) to activate NF-κB and AP-1 which induce the production of SEAP. After a 22 hour incubation at 37° C., 5% CO2, SEAP levels are determined with the addition of HEK-Blue™ Detection reagent (Invivogen), a cell culture medium that allows for detection of SEAP, according to manufacturer's specifications. The percent inhibition is determined as the % reduction in the HEK-Blue signal present in wells treated with agonist plus DMSO alone compared to wells treated with a known inhibitor.

human TLR7 = target: T2, human TLR7 (Homo sapiens, UniProt Q9NYK1); assay: TLR7 inhibition reporter assay (HEK-Blue cells, SEAP reporter); conditions: HEK-Blue cells overexpressing human TLR7; stimulated with gardiquimod 7.5 μM; SEAP read after 22 hour; dose range 0.05 nM-50 μM
T2 construct: host or cells: HEK-Blue cells
T2 sequence (Q9NYK1 27-1049): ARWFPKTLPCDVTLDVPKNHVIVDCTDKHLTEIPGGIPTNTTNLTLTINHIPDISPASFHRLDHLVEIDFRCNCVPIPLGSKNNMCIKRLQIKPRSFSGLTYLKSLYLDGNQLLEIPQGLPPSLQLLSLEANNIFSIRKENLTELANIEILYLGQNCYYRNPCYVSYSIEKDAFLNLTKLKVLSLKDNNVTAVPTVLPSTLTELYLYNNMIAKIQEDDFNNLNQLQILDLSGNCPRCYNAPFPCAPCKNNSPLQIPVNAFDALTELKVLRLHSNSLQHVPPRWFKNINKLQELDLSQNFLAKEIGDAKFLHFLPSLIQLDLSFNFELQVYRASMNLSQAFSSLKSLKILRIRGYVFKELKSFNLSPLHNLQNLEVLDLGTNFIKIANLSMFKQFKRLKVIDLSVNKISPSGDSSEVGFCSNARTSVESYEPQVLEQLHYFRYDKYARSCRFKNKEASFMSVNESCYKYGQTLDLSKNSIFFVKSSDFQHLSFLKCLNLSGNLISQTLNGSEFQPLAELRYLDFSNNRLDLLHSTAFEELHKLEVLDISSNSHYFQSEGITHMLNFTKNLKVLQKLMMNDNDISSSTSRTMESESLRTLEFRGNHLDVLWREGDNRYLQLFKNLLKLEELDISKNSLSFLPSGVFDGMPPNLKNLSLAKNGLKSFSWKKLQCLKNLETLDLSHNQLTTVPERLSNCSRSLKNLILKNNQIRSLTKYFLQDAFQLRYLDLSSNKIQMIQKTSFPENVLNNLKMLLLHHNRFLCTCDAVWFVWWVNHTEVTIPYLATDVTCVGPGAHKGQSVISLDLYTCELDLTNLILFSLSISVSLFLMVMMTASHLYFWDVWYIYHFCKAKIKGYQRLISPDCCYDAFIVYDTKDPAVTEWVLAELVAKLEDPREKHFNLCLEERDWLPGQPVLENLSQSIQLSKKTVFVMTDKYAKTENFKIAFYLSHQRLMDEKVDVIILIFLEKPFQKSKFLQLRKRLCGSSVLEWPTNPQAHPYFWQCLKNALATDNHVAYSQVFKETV
Method: as §1

human TLR8 = target: T3, human TLR8 (Homo sapiens, UniProt Q9NR97); assay: TLR8 inhibition reporter assay (HEK-Blue cells, SEAP reporter); conditions: HEK-Blue cells overexpressing human TLR8; stimulated with R848 15.9 μM; SEAP read after 22 hour; dose range 0.05 nM-50 μM
T3 construct: host or cells: HEK-Blue cells
T3 sequence (Q9NR97 27-1041): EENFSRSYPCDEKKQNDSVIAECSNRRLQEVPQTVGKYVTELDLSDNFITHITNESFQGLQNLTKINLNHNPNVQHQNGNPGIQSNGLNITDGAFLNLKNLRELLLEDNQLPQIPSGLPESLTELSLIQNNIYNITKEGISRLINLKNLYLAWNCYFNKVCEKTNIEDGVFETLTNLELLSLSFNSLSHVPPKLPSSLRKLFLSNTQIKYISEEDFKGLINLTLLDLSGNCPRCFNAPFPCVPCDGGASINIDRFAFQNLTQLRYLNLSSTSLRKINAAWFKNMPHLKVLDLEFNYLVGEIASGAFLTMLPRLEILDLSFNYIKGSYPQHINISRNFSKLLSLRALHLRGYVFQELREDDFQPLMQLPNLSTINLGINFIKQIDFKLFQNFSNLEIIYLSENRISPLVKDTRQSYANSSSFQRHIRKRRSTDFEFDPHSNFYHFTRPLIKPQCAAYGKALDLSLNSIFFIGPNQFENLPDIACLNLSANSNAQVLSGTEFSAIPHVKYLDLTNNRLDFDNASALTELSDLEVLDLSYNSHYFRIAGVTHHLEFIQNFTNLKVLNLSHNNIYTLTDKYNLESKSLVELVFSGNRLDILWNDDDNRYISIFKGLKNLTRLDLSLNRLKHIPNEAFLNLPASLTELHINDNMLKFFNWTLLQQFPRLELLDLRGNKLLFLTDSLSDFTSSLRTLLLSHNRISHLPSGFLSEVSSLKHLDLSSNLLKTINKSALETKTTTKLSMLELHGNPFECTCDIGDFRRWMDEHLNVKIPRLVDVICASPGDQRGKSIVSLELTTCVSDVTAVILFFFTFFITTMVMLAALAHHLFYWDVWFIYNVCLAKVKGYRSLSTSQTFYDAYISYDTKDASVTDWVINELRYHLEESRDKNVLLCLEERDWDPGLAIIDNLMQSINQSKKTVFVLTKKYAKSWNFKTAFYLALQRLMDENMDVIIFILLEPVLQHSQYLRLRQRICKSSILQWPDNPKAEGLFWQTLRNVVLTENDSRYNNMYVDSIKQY
Method: as §1

pIC50 (human TLR9)	pIC50 (human TLR7)	pIC50 (human TLR8)	Compound
6.31	5.51	≤ 4.30	CC(C)N1CCN(c2ccc(Nc3ccc4[nH]c(=O)c(-c5ccc(S(C)(=O)=O)cc5)cc4c3)cc2)CC1 [Example 90, 3-(4-methanesulfonylphenyl)-6-({4-[4-(propan-2-yl)piperazin-1-yl]phenyl}amino)-1,2-dihydroquinolin-2-one]
6.81	5.45	4.66	CC(C)N1CCC(c2ccc(-c3ccc4c(c3)cc(-c3ccc(S(C)(=O)=O)cc3)c(=O)n4CCO)cc2)CC1 [Example 72, 1-(2-hydroxyethyl)-3-(4-methanesulfonylphenyl)-6-{4-[1-(propan-2-yl)piperidin-4-yl]phenyl}-1,2-dihydroquinolin-2-one]
6.16	≤ 4.30	≤ 4.30	O=c1[nH]c2ccc(-c3ccc(C4CCN(C5COC5)CC4)cc3)cc2cc1-c1ccc2nccnc2c1 [Example 94, 6-{4-[1-(oxetan-3-yl)piperidin-4-yl]phenyl}-3-(quinoxalin-6-yl)-1,2-dihydroquinolin-2-one]
6.54	5.67	5.65	CN1CCC(c2ccc(-c3ccc4c(c3)cc(-c3ccc(S(C)(=O)=O)cc3)c(=O)n4C)cc2)CC1 [Example 78, 3-(4-methanesulfonylphenyl)-1-methyl-6-[4-(1-methylpiperidin-4-yl)phenyl]-1,2-dihydroquinolin-2-one]
7.52	5.83	≤ 4.30	CC(C)N1CCC(N2CCC(c3ccc4[nH]c(=O)c(-c5ccccc5)cc4c3)CC2)CC1 [Example 64, 3-phenyl-6-[1′-(propan-2-yl)-[1,4′-bipiperidine]-4-yl]-1,2-dihydroquinolin-2-one]
6.33	5.30	4.96	CC(C)N1CCC(c2ccc(-c3ccc4c(c3)cc(-c3ccc(S(C)(=O)=O)cc3)c(=O)n4CC(C)(C)O)cc2)CC1 [Example 89, 1-(2-hydroxy-2-methylpropyl)-3-(4-methanesulfonylphenyl)-6-{4-[1-(propan-2-yl)piperidin-4-yl]phenyl}-1,2-dihydroquinolin-2-one]
7.02	5.51	4.86	CC(C)N1CCN(c2ccc(-c3ccc4[nH]c(=O)c(-c5ccc(N(C)C)cc5)cc4c3)cc2)CC1 [Example 9, 3-[4-(dimethylamino)phenyl]-6-{4-[4-(propan-2-yl)piperazin-1-yl]phenyl}-1,2-dihydroquinolin-2-one]
7.06	6.52	5.74	CC(C)N1CCN(c2ccc(-c3ccc4[nH]c(=O)c(-c5cccc(NS(C)(=O)=O)c5)cc4c3)cc2)CC1 [Example 8, N-[3-(2-oxo-6-{4-[4-(propan-2-yl)piperazin-1-yl]phenyl}-1,2-dihydroquinolin-3-yl)phenyl]methanesulfonamide]
6.39	5.32	≤ 4.30	CC(C)N1CCN(c2ccc(-c3ccc4[nH]c(=O)c(-c5c(F)cc(F)cc5F)cc4c3)cc2)CC1 [Example 41, 6-{4-[4-(propan-2-yl)piperazin-1-yl]phenyl}-3-(2,4,6-trifluorophenyl)-1,2-dihydroquinolin-2-one]
5.78	4.78	≤ 4.30	N#Cc1cccc(-c2cc3cc(-c4ccc(C5CCN(C6COC6)CC5)cc4)ccc3[nH]c2=O)c1 [Example 99, 3-(6-{4-[1-(oxetan-3-yl)piperidin-4-yl]phenyl}-2-oxo-1,2-dihydroquinolin-3-yl) benzonitrile]
6.35		6.93	CC(C)N1CCC(c2ccc(-c3ccc4[nH]c(=O)c(-c5ccc(N(C)C)cc5)cc4c3)cc2)CC1 [Example 88, 3-[4-(dimethylamino)phenyl]-6-{4-[1-(propan-2-yl)piperidin-4-yl]phenyl}-1,2-dihydroquinolin-2-one]
6.51	5.97		CC(C)N1CCN(c2ccc(-c3ccc4[nH]c(=O)c(-c5cncnc5)cc4c3)cc2)CC1 [Example 34, 6-{4-[4-(propan-2-yl)piperazin-1-yl]phenyl}-3-(pyrimidin-5-yl)-1,2-dihydroquinolin-2-one]
